As usually defined, the Kd is the free concentration of one partner at which half of the binding sites on the other are occupied at equilibrium, for simple one-to-one binding.

The values below come from article PMC4880925 (Scientific Reports, 2016).

The target of experiment [1] is T1, CYP144A1 (Mycobacterium tuberculosis, UniProt P9WPL1).
T1 construct: gene cyp144
In kind it is binding.
Target sequence in this assay (P9WPL1 whole entry): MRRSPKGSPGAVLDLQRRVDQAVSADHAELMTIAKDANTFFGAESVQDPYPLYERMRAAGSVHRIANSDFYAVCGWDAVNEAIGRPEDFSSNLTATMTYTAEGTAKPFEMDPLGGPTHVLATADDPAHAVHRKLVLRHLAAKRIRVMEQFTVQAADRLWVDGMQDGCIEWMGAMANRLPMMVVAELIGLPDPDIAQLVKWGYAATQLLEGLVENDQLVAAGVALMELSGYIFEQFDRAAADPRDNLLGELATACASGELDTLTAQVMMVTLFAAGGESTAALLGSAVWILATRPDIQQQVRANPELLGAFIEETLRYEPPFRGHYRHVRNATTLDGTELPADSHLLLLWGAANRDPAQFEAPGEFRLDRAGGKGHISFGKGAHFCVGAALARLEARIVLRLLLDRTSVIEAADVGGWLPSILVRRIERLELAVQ

Experiment [2] deals with T1, CYP144A1. Description: […]; supported by EPR and DSC (Tm […] to […] °C). It counts as binding.
Target sequence in this assay (P9WPL1 31-434): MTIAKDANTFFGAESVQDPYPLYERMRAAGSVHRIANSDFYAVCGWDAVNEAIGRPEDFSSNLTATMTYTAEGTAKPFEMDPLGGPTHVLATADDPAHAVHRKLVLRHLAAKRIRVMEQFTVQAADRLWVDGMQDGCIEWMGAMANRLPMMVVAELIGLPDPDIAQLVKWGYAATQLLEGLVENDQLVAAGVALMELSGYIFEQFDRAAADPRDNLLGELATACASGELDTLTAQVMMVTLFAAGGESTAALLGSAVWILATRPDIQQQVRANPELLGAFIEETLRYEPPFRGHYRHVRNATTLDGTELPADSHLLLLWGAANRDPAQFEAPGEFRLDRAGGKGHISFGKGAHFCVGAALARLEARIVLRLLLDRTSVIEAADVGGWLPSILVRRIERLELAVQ

With `Clc1ccccc1C(c1ccccc1)(c1ccccc1)n1ccnc1` [clotrimazole], the “differential scanning calorimetry, Tm raised from 47 to 50 °C” value on CYP144A1 [1] is 50 °C.
In the case of `Clc1ccc(COC(Cn2ccnc2)c2ccc(Cl)cc2Cl)cc1` (centres unmarked) [econazole], the Kd on CYP144A1 [2] was determined as 720 ± 180 nM.
